Measured values reported in ChEMBL document CHEMBL1130058, “Structure-cytoprotective activity relationship of simple molecules containing an alpha,beta-unsaturated carbonyl system” (1997).

Organism: Rattus norvegicus
Assay: Gastric cytoprotective activity in male wistar rat
Type: functional

`CC1=CC(=O)CC1` and `CC1=CC(=O)C(=C(C)C)CC1` are the same in Cytoprotective effect: 4.3 for the first, 4.3 for the second.

First: CC1CC(O)=CC(=O)O1 (centres undefined)
Second: O=C1C=CCCO1
The Cytoprotective effect of the first is higher: 4.66 for the first, 0.55 for the second.

Going from `O=C(O)/C=C/c1ccoc1` to `O=C(O)/C=C/c1ccccc1` [CINNAMIC ACID], the Cytoprotective effect rises from 4.6 to 5.

`C/C=C(/C)C(=O)OC` and `C/C=C(\C)C(=O)OC` are the same in Cytoprotective effect: 5 for the first, 5 for the second.

Compared with `COC(=O)C=C(C)C`, `C=C(C)C(=O)OC` is higher in Cytoprotective effect: 4.5 for the first, 4.8 for the second.

Going from `C/C=C(\C)C(=O)OCC` to `C/C=C(\C)C(=O)O`, the Cytoprotective effect rises from 4.8 to 5.

First: COc1cc2c(c3oc(=O)ccc13)OCO2
Second: COc1cc2ccc(=O)oc2c(O)c1O [FRAXETIN]
The Cytoprotective effect of the first is lower: 4.2 for the first, 4.75 for the second.

Going from `C=C(C=O)C1CCC(C)(O)CC1` (centres undefined) to `C=C(C=O)C1CC=C(C)CC1` (centres undefined), the Cytoprotective effect rises from 0.7 to 0.9.

Going from `CCOC(=O)CC(=O)c1ccoc1` to `C=CC(=O)OCC` [ACRYLIC ACID ETHYL ESTER], the Cytoprotective effect falls from 4.75 to 4.3.

Compared with `O=C1C=CCC1`, `C=C1CCOC1=O` [TULIPALINE A] is lower in Cytoprotective effect: 1.3 for the first, 0.25 for the second.

First: C/C=C(/C)C(=O)O
Second: C/C=C(\C)C=O [2-methyl-(E)-2-butenal]
The Cytoprotective effect of the first is lower: 3.5 for the first, 4.6 for the second.

Compared with `O=c1cc(O)c2ccccc2o1` [4-HYDROXYCOUMARINS], `O=c1ccc2ccccc2o1` [COUMARIN] is higher in Cytoprotective effect: 4.62 for the first, 4.7 for the second.

Going from `C=CC#N` [ACRYLONITRILE] to `C#CC(=O)OCC` [PROPYNOIC ACID ETHYL ESTER], the Cytoprotective effect falls from 3.5 to 0.43.

Compared with `O=C/C=C/c1ccccc1` [CINNAMALDEHYDE], `COC(=O)/C=C/c1ccccc1` [E-METHYL CINNAMATE] is lower in Cytoprotective effect: 4.5 for the first, 2.9 for the second.

`O=c1ccc2ccc(O)cc2o1` [UMBELLIFERONE] showed a Cytoprotective effect of 3.8.
